Experimental data: ChEMBL document CHEMBL3046029, “Green approach towards the facile synthesis of dihydropyrano(c)chromene and pyrano[2,3-d]pyrimidine derivatives and their biological evaluation” (2013)
Active and inactive are the calls of the source. The rule behind the calls is not given here.

How the values were obtained:
[1] = system: Klebsiella pneumoniae; assay: Antibacterial activity against Klebsiella pneumoniae ATCC 15380 assessed as diameter of growth inhibition zone at 20 mg/ml after 24 hr by disk diffusion method; assay type: functional; settings: ATCC 15380, 24 h, read-out: DIZ
[2] = system: Pseudomonas aeruginosa; assay: Antibacterial activity against Pseudomonas aeruginosa ATCC 27853 assessed as diameter of growth inhibition zone at 20 mg/ml after 24 hr by disk diffusion method; assay type: functional; settings: ATCC 27853, 24 h, read-out: DIZ
[3] = system: Citrobacter freundii; assay: Antibacterial activity against Citrobacter freundii ATCC 8090 = MTCC 1658 assessed as diameter of growth inhibition zone at 20 mg/ml after 24 hr by disk diffusion method; assay type: functional; settings: ATCC 8090 = MTCC 1658, 24 h, read-out: DIZ
[4] = system: Salmonella typhi; assay: Antibacterial activity against Salmonella enterica subsp. enterica serovar Typhi ATCC 19430 assessed as diameter of growth inhibition zone at 20 mg/ml after 24 hr by disk diffusion method; assay type: functional; settings: ATCC 19430, 24 h, read-out: DIZ
[5] = system: Salmonella typhi; assay: Antibacterial activity against Salmonella enterica subsp. enterica serovar Typhi ATCC 19430 assessed as growth inhibition after 24 hr by disk diffusion method; assay type: functional
[6] = system: Priestia megaterium; assay: Antibacterial activity against Bacillus megaterium ATCC 12872 assessed as diameter of growth inhibition zone at 20 mg/ml after 24 hr by disk diffusion method; assay type: functional; settings: ATCC 12872, 24 h, read-out: DIZ
[7] = system: Escherichia coli; assay: Antibacterial activity against Escherichia coli ATCC 25922 assessed as diameter of growth inhibition zone at 20 mg/ml after 24 hr by disk diffusion method; assay type: functional; settings: ATCC 25922, 24 h, read-out: DIZ
[8] = system: OVCAR-3; assay: Anticancer activity against Homo sapiens (human) OVCAR3 cells at 0.1 to 100 uM by SRB assay; assay type: functional, cell-based
[9] = system: MDA-MB-435; assay: Anticancer activity against Homo sapiens (human) MDA-MB-435 cells at 0.1 to 100 uM by SRB assay; assay type: functional, cell-based
[10] = system: PC-3; assay: Anticancer activity against Homo sapiens (human) PC3 cells at 0.1 to 100 uM by SRB assay; assay type: functional, cell-based

Structure (SMILES)	zone of inhibition at 20000 µg/mL [1]	zone of inhibition at 20000 µg/mL [2]	zone of inhibition at 20000 µg/mL [3]	zone of inhibition at 20000 µg/mL [4]	MIC [5]	zone of inhibition at 20000 µg/mL [6]	zone of inhibition at 20000 µg/mL [7]	Activity [8]	Activity [9]	Activity [10]
Cc1ccc(C2C(C#N)=C(N)Oc3[nH]c(=O)[nH]c(=O)c32)s1 (stereo not drawn)	22 mm	22 mm	12 mm	20 mm	10 µg	10 mm	16 mm			
CC1(C)CC(=O)C2=C(C1)OC(N)=C(C#N)C2c1cccs1 (stereo not drawn)	19 mm	20 mm	10 mm	22 mm	10 µg	10 mm	20 mm			
Cc1ccc(C2C(C#N)=C(N)OC3=C2C(=O)CC(C)(C)C3)o1 (stereo not drawn)	15 mm	15 mm	10 mm	16 mm	10 µg	12 mm	17 mm			
Cc1ccc(C2C(C#N)=C(N)OC3=C2C(=O)CC(C)(C)C3)s1 (stereo not drawn)	21 mm	22 mm	10 mm	19 mm	10 µg	10 mm	22 mm			
CC1(C)CC(=O)C2=C(C1)OC(N)=C(C#N)C2c1ccc[nH]1 (stereo not drawn)	19 mm	20 mm	10 mm	22 mm	10 µg	12 mm	20 mm			
N#CC1=C(N)Oc2[nH]c(=O)[nH]c(=O)c2C1c1ccco1 (stereo not drawn)	16 mm	14 mm	10 mm	18 mm	10 µg	14 mm	12 mm	inactive	inactive	inactive
N#CC1=C(N)Oc2[nH]c(=O)[nH]c(=O)c2C1c1ccc[nH]1 (stereo not drawn)	20 mm	18 mm	12 mm	22 mm	10 µg	12 mm	14 mm			
Cc1ccc(C2C(C#N)=C(N)Oc3[nH]c(=O)[nH]c(=O)c32)o1 (stereo not drawn)	17 mm	15 mm	10 mm	18 mm	10 µg	14 mm	12 mm			
COc1cccc2c1C(=O)c1c(O)c3c(c(O)c1C2=O)C[C@@](O)(C(=O)CO)C[C@@H]3O[C@H]1C[C@H](N)[C@H](O)[C@H](C)O1								Active	Active	Active
Cc1ccsc1C1C(C#N)=C(N)OC2=C1C(=O)CC(C)(C)C2 (stereo not drawn)	20 mm	22 mm	10 mm	19 mm	10 µg	12 mm	21 mm			
Cc1ccsc1C1C(C#N)=C(N)Oc2[nH]c(=O)[nH]c(=O)c21 (stereo not drawn)	22 mm	20 mm	12 mm	21 mm	10 µg	10 mm	16 mm			
N#CC1=C(N)Oc2[nH]c(=O)[nH]c(=O)c2C1c1cccs1 (stereo not drawn)	20 mm	18 mm	12 mm	22 mm	10 µg	12 mm	15 mm			
CC1(C)CC(=O)C2=C(C1)OC(N)=C(C#N)C2c1ccco1 (stereo not drawn)	15 mm	14 mm	10 mm	15 mm	10 µg	12 mm	16 mm	inactive	inactive	inactive
